Patent US8759363B2, “Quinazoline-based T cell proliferation inhibitors” (Yissum Research Development Company of the Hebrew …, priority 2010, dated 2014)

Tests used:
PBMC = PBMC proliferation, BrdU incorporation; type: cell-based, human; settings: for IC50: Homo sapiens, ConA-stimulated PBMC, BrdU uptake, nM ± SD, read-out: IC50 PBMC proliferation inhibition; for fold increase in the IC50 of PBMC proliferation compared with compound 2: relative to compound 2
Experimental: Blood samples were taken from healthy donors and loaded on a Ficoll density gradient to purify the PBMC population. T cells were purified by human anti-CD3 using an autoMACS instrument (Miltenyi Biotec, Bergisch-Gladbach, Germany), according to the manufacturer's instructions. The identity of T cells was confirmed by flow cytometry, as they stained positive for CD3. Cells were stimulated with ConA (10 μg/ml), ODN2006 (0.5 μg/ml; Enzo Life Sciences), or LPS (50 μg/ml; Sigma-Aldrich, Steinheim, Germany), for 72 h in the presence of the inhibitor, and their proliferation was measured in the BrdU incorporation assay as will be later described.
(§1) Cells were depleted of fetal calf serum (FCS) for 12 hours. They were then stimulated to proliferate by addition of ConA (10 μg/ml) for PBMC from healthy individuals and for Jurkat cells, FCS (10%) for HEK293 and A375 cells, PDGF (30 ng/ml) for NIH 3T3 cells, and EGF (30 ng/ml) for MDA-MB-231, Cells (1×10^5) were cultured in 96-well plates for 3 days in the presence or absence of inhibitors at the concentrations specified in the text. Each condition was tested in duplicate wells.
(§2) Proliferation was assessed by BrdU incorporation using a colorimetric ELISA kit (Roche, Germany). Subsequent to labeling with 10 μM BrdU, DNA was denatured and the cells were incubated with anti-BrdU-POD, prior to the addition of colorimetric substrate (TMB). The reaction product was quantified by measuring absorbance at 450 nm in an ELISA plate reader (ELx800 BIO-TEK Instruments Inc.).
(§3) Since we were not prejudiced towards any specific protein kinase, we used a biological assay for T cell proliferation. We tested our libraries for inhibition of proliferation of PBMC and Jurkat cells (Table 3). Cell proliferation was measured by BrdU uptake. […] PBMC cells were stimulated by a non-specific T cell mitogen, Concanavalin A (ConA). All of the compounds that were tested inhibited proliferation at micromolar or sub-micromolar concentrations.

Jurkat cells = experiment: Jurkat cell proliferation, BrdU incorporation; type: cell-based, human; settings: for IC50: Homo sapiens, Jurkat, BrdU uptake, nM ± SD, read-out: IC50 Jurkat cells proliferation inhibition; for fold increase in the IC50 of Jurkat cell proliferation compared with compound 2: relative to compound 2
Experimental: as §1, §2, §3

| Structure (SMILES) | IC50 (PBMC) [nM] | IC50 (Jurkat cells) [nM] | melting point [°C] | fold increase in the IC50 of PBMC proliferation compared with compound 2 (PBMC) [fold] | fold increase in the IC50 of Jurkat cell proliferation compared with compound 2 (Jurkat cells) [fold] |
| --- | --- | --- | --- | --- | --- |
| Oc1cc(-c2nc(NCc3ccccc3)c3ccccc3n2)cc(O)c1O [Compound 29, 5-(4-(benzylamino)quinazolin-2-yl)benzene-1,2,3-triol] | 7000 ± 3.5 | 950 ± 0.07 | > 250 | – | – |
| COc1cc(-c2nc(Nc3ccc4[nH]ncc4c3)c3ccccc3n2)cc(OC)c1OC [Compound 16, N-(1H-indazol-5-yl)-2-(3,4,5-trimethoxyphenyl)quinazolin-4-amine] | 600 ± 0.28 | 700 ± 0.35 | > 250 | – | – |
| COc1cc(-c2nc(Nc3ccc(C)cc3C)c3ccccc3n2)cc(OC)c1OC [Compound 3, N-(2,4-dimethylphenyl)-2-(3,4,5-trimethoxyphenyl)quinazolin-4-amine] | 750 ± 0.05 | 2600 ± 3.39 | > 250 | 10 | 10 |
| Nc1ccc(CNc2nc(-c3cc(O)c(O)c(O)c3)nc3ccccc23)cc1 [Compound 30, 5-(4-(4-aminobenzylamino)quinazolin-2-yl)benzene-1,2,3-triol] | 570 ± 0.24 | 670 ± 0.22 | > 250 | – | – |
| Cc1ccc(Nc2nc(-c3cc(O)c(O)c(O)c3)nc3ccccc23)c(C)c1 [Compound 22, 5-(4-(2,4-dimethylphenylamino)quinazolin-2-yl)benzene-1,2,3-triol] | 730 ± 0.04 | 3700 ± 4.67 | > 250 | – | – |
| COc1cc(-c2nc(Nc3ccc(Cl)cc3)c3ccccc3n2)cc(OC)c1OC [Compound 8, N-(4-chlorophenyl)-2-(3,4,5-trimethoxyphenyl)quinazolin-4-amine] | 300 ± 0.05 | 530 ± 0.32 | > 250 | – | – |
| COc1cc(-c2nc(Nc3ccc4cn[nH]c4c3)c3ccccc3n2)cc(OC)c1OC [Compound 15, N-(1H-indazol-6-yl)-2-(3,4,5-trimethoxyphenyl) quinazolin-4-amine] | 450 ± 0.07 | 600 ± 0.14 | > 250 | – | – |
| Oc1cc(-c2nc(Nc3ccccc3)c3ccccc3n2)cc(O)c1O [Compound 20, 5-(4-(phenylamino)quinazolin-2-yl)benzene-1,2,3-triol] | 650 ± 0.49 | 5500 ± 3.5 | > 250 | – | – |
| CCCCCCCCOc1ccc(Nc2nc(-c3cc(O)c(O)c(O)c3)nc3ccccc23)cc1 [Compound 25, 5-(4-(4-(octyloxy)phenylamino)quinazolin-2-yl)benzene-1,2,3-triol] | 4530 ± 0.31 | 4250 ± 1.3 | > 250 | – | – |
| Oc1cc(-c2nc(Nc3ccc4[nH]ncc4c3)c3ccccc3n2)cc(O)c1O [Compound 35, 5-(4-(1H-indazol-5-ylamino)quinazolin-2-yl)benzene-1,2,3-triol] | 780 ± 0.67 | 710 ± 0.87 | > 250 | – | – |
| CCCCCCCCOc1ccc(Nc2nc(-c3cc(OC)c(OC)c(OC)c3)nc3ccccc23)cc1 [Compound 6, N-(4-(octyloxy)phenyl)-2-(3,4,5-trimethoxyphenyl)quinazolin-4-amine] | 2400 ± 2.26 | 850 ± 0.07 | – | – | – |
| COc1cc(-c2nc(NCc3ccc(F)c(F)c3)c3ccccc3n2)cc(OC)c1OC [Compound 12, N-(3,4-difluorobenzyl)-2-(3,4,5-trimethoxyphenyl)quinazolin-4-amine] | 200 | 730 ± 0.39 | > 250 | – | – |
| Oc1cc(-c2nc(Nc3ccc(OC(F)(F)F)cc3)c3ccccc3n2)cc(O)c1O [Compound 26, 5-(4-(4-(trifluoromethoxy)phenylamino)quinazolin-2-yl)benzene-1,2,3-triol] | 2780 ± 0.26 | 3240 ± 0.31 | > 250 | – | – |
| COc1ccc(Nc2nc(-c3cc(OC)c(OC)c(OC)c3)nc3ccccc23)cc1 [Compound 5, N-(4-methoxyphenyl)-2-(3,4,5-trimethoxyphenyl)quinazolin-4-amine] | 500 ± 0.14 | 1100 ± 0.14 | > 250 | – | – |
| Oc1cc(-c2nc(NCc3ccc(F)c(F)c3)c3ccccc3n2)cc(O)c1O [Compound 31, 5-(4-(3,4-difluorobenzylamino)quinazolin-2-yl)benzene-1,2,3-triol] | 280 ± 0.04 | 600 ± 0.21 | > 250 | – | – |
| Oc1cc(-c2nc(NCCc3c[nH]c4ccccc34)c3ccccc3n2)cc(O)c1O [Compound 36, 5-(4-(2-(1H-indol-3-yl)ethylamino)quinazolin-2-yl)benzene-1,2,3-triol] | 1240 ± 0.74 | 1970 ± 0.74 | > 250 | – | – |
| COc1cc(-c2nc(NCc3ccc(N)cc3)c3ccccc3n2)cc(OC)c1OC [Compound 11, N-(4-aminobenzyl)-2-(3,4,5-trimethoxyphenyl)quinazolin-4-amine] | 380 ± 0.04 | 480 ± 0.18 | > 250 | – | – |
| COc1cc(-c2nc(Nc3ccc4c(c3)OCO4)c3ccccc3n2)cc(OC)c1OC [Compound 18, N-(benzo[d][1,3]dioxol-5-yl)-2-(3,4,5-trimethoxyphenyl) quinazolin-4-amine] | 380 ± 0.04 | 600 | > 250 | – | – |
| COc1cc(-c2nc(Nc3ccc(OC(F)(F)F)cc3)c3ccccc3n2)cc(OC)c1OC [Compound 7, N-(4-(trifluoromethoxy)phenyl)-2-(3,4,5-trimethoxyphenyl) quinazolin-4-amine] | 400 | 180 ± 0.11 | > 250 | 5 | 6 |
| COc1cc(-c2nc(NCc3ccc(Cl)c(Cl)c3)c3ccccc3n2)cc(OC)c1OC [Compound 13, N-(3,4-dichlorobenzyl)-2-(3,4,5-trimethoxyphenyl)quinazolin-4-amine] | 300 ± 0.14 | 730 ± 0.39 | – | – | – |
| Oc1cc(-c2nc(NCc3ccc(Cl)c(Cl)c3)c3ccccc3n2)cc(O)c1O [Compound 32, 5-(4-(3,4-dichlorobenzylamino)quinazolin-2-yl)benzene-1,2,3-triol] | 2600 ± 0.24 | 3640 ± 0.54 | > 250 | – | – |
| COc1cc(-c2nc(Nc3ccccc3)c3ccccc3n2)cc(OC)c1OC [Compound 1, N-phenyl-2-(3,4,5-trimethoxyphenyl)quinazolin-4-amine] | 280 ± 0.04 | 380 ± 0.18 | > 250 | 3 | 10 |
| COc1cc(-c2nc(Nc3ccccc3CO)c3ccccc3n2)cc(OC)c1OC [Compound 9, (2-(2-(3,4,5-trimethoxyphenyl)quinazolin-4-ylamino)phenyl)methanol] | 850 ± 0.07 | 580 ± 0.18 | > 250 | – | – |
| Oc1cc(-c2nc(Nc3ccc4nc[nH]c4c3)c3ccccc3n2)cc(O)c1O [Compound 38, 5-(4-(3H-benzo[d]imidazol-5-ylamino)quinazolin-2-yl)benzene-1,2,3-triol] | 4340 ± 0.74 | 2570 ± 0.82 | > 250 | – | – |
| COc1ccc(CNc2nc(-c3cc(OC)c(OC)c(OC)c3)nc3ccccc23)cc1 [Compound 14, N-(4-methoxybenzyl)-2-(3,4,5-trimethoxyphenyl)quinazolin-4-amine] | 500 ± 0.14 | 1100 ± 0.14 | – | – | – |
| COc1cc(-c2nc(Nc3ccc4nc[nH]c4c3)c3ccccc3n2)cc(OC)c1OC [Compound 19, N-(3H-benzoimidazol-5-yl)-2-(3,4,5-trimethoxyphenyl)quinazolin-4-amine] | 430 ± 0.11 | 1500 ± 0.71 | > 250 | – | – |
| COc1ccc(Nc2nc(-c3cc(O)c(O)c(O)c3)nc3ccccc23)cc1 [Compound 24, 5-(4-(4-methoxyphenylamino)quinazolin-2-yl)benzene-1,2,3-triol] | 500 ± 0.14 | 550 ± 0.21 | > 250 | – | – |
| Oc1cc(-c2nc(Nc3ccc(Cl)cc3)c3ccccc3n2)cc(O)c1O [Compound 27, 5-(4-(4-chlorophenylamino)quinazolin-2-yl)benzene-1,2,3-triol] | 550 ± 0.21 | 4250 ± 5.3 | > 250 | – | – |
| Oc1cc(-c2nc(Nc3ccc4cn[nH]c4c3)c3ccccc3n2)cc(O)c1O [Compound 34, 5-(4-(1H-indazol-6-ylamino)quinazolin-2-yl)benzene-1,2,3-triol] | 500 ± 0.14 | 690 ± 0.3 | – | – | – |
| Oc1ccc(Nc2nc(-c3cc(O)c(O)c(O)c3)nc3ccccc23)cc1 [Compound 23, 5-(4-(4-hydroxyphenylamino)quinazolin-2-yl)benzene-1,2,3-triol] | 970 ± 0.84 | 1120 ± 0.28 | – | – | – |
